For 24 compounds, Emax and EC50 results are on record in US20250101041A1, “POSITIVE ALLOSTERIC MODULATORS OF THE MUSCARINIC ACETYLCHOLINE RECEPTOR M4” (Vanderbilt University, priority 2022, published 2025).

pEC50: −log10 of the molar value.

The target of this assay is T1, human mAChR M4 (Homo sapiens, UniProt P08173).
T1 construct: expressed in transfected cells; host or cells: CHO-K1 (American Type Culture Collection), stably expressing hM4 and Gqi5
T1 sequence (P08173 1-479): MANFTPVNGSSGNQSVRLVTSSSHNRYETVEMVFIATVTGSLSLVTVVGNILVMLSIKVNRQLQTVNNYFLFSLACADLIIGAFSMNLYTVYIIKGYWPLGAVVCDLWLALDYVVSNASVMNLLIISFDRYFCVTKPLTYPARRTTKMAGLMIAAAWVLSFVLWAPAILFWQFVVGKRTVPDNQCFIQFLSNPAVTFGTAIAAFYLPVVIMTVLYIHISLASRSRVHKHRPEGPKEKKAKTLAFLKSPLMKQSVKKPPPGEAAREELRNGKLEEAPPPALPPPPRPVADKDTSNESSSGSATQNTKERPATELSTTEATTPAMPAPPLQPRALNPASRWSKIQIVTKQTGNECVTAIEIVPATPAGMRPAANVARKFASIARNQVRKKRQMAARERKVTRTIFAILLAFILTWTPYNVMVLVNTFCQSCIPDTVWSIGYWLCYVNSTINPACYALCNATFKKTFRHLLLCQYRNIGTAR
As to the kind of experiment: mAChR M4 cell-based functional assay: calcium mobilization (Fluo-4, FDSS), potentiation of EC20 acetylcholine response in hM4-Gqi5 CHO-K1 cells. The conditions noted are these: human M4; for Emax at 30 µM: CHO-K1, % ACh maximum at 30 μM; for pEC50: potentiation of EC20 acetylcholine response, calcium mobilization. In short, it runs like this: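 Readout is the fluorescence-ratio rise at 1 Hz on FDSS, with PAM activity taken as concentration-dependent enhancement of the EC20 acetylcholine response, fitted four-parameter for EC50/Emax. hM4-Gqi5 CHO-K1 cells carried Fluo-4 AM dye; test compounds (11 points, 1:3) preceded EC20 acetylcholine additions at 144 s and 230 s.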
In general terms: A change in cytosolic calcium serves as a functional read-out for many receptors and channels.

One may read the Emax as the size of the effect at its maximum, as opposed to the concentration needed. As a reminder, the pEC50 is the EC50 on a negative log10 scale, so that one unit is a factor of ten. `COCc1cc(=O)n2nc(N3CCc4ncc(-c5cnccc5C)cc4C3)c(C)c(C)c2n1` [Compound 1-228, 2-(methoxymethyl)-8,9-dimethyl-7-(3-(4-methylpyridin-3-yl)-7,8-dihydro-1,6-naphthyridin-6(5H)-yl)-4H-pyrimido[1,2-b] pyridazin-4-one]: the Emax at 30 µM was 85% and the pEC50 was 7.47.

On to `Cc1c(N2CCc3ncc(N4CCOc5ncccc54)cc3C2)nn2c(=O)ccnc2c1C` [Compound 2-33, 7-(3-(2,3-dihydro-1H-pyrido[2,3-b][1,4]oxazin-1-yl)-7,8-dihydro-1,6-naphthyridin-6(5H)-yl)-8,9-dimethyl-4H-pyrimido[1,2-b]pyridazin-4-one], for which the Emax at 30 µM worked out at 89% and the pEC50 is 7.82.

Regarding `Cc1cc2nccc(=O)n2nc1N1CCc2ncc(N3CCOC(c4ccccc4)C3)cc2C1` (stereo in doubt) [Compound 2-73, (S)-8-methyl-7-(3-(2-phenylmorpholino)-7,8-dihydro-1,6-naphthyridin-6(5H)-yl)-4H-pyrimido[1,2-b]pyridazin-4-one], the Emax at 30 µM turned out to be 87%.

As for `Cc1cc2nccc(=O)n2nc1N1CCc2ncc(Nc3cc(C(F)(F)F)ncc3F)cc2C1` [Compound 2-152, 7-(3-((5-fluoro-2-(trifluoromethyl)pyridin-4-yl)amino)-7,8-dihydro-1,6-naphthyridin-6(5H)-yl)-8-methyl-4H-pyrimido[1,2-b]pyridazin-4-one], the Emax at 30 µM was 88% and the pEC50 was 5.88.

In the case of `Cc1cc2nccc(=O)n2nc1N1CCc2ncc(N3CCOC(c4ccccc4F)C3)cc2C1` (centres unmarked) [Compound 2-59, 7-(3-(2-(2-fluorophenyl)morpholino)-7,8-dihydro-1,6-naphthyridin-6(5H)-yl)-8-methyl-4H-pyrimido[1,2-b]pyridazin-4-one], the Emax at 30 µM was found to be 74% and the pEC50 was 6.57.

In the case of `Cc1cc2nccc(=O)n2nc1N1CCc2ncc(-c3cncc(C(C)(C)O)c3)cc2C1` [Compound 1-419, 7-(3-(5-(2-hydroxypropan-2-yl)pyridin-3-yl)-7,8-dihydro-1,6-naphthyridin-6(5H)-yl)-8-methyl-4H-pyrimido[1,2-b]pyridazin-4-one], the Emax at 30 µM amounted to 82% and the pEC50 is 5.95.

On to `COCc1cc(=O)n2nc(N3CCc4ncc(C(F)(F)F)cc4C3)c(C)c(C)c2n1` [Compound 1-109, 2-(Methoxymethyl)-8,9-dimethyl-7-(3-(trifluoromethyl)-7,8-dihydro-1,6-naphthyridin-6(5H)-yl)-4H-pyrimido[1,2-b]pyridazin-4-one], for which the Emax at 30 µM came out at 79% and the pEC50 was 7.22.

For `Cc1c(N2CCc3ncc(N=S4(=O)CCCC4)cc3C2)nn2c(=O)ccnc2c1C` [Compound 2-147, 8,9-dimethyl-7-(3-((1-oxidotetrahydro-126-thiophen-1-ylidene)amino)-7,8-dihydro-1,6-naphthyridin-6(5H)-yl)-4H-pyrimido[1,2-b]pyridazin-4-one], the Emax at 30 µM is 100% and the pEC50 is 5.91.

With `COCc1cc(=O)n2nc(N3CCc4ncc(-c5cnn(C)c5C)cc4C3)c(C)cc2n1` [Compound 1-366, 7-(3-(1,5-dimethyl-1H-pyrazol-4-yl)-7,8-dihydro-1,6-naphthyridin-6(5H)-yl)-2-(methoxymethyl)-8-methyl-4H-pyrimido[1,2-b]pyridazin-4-one], the Emax at 30 µM was found to be 72% and the pEC50 is 6.55.

For `Cc1cc(F)ccc1-c1cnc2c(c1)CN(c1nn3c(=O)ccnc3cc1C)CC2` [Compound 1-443, 7-(3-(4-fluoro-2-methylphenyl)-7,8-dihydro-1,6-naphthyridin-6(5H)-yl)-8-methyl-4H-pyrimido [1,2-b]pyridazin-4-one], the Emax at 30 µM was determined as 99% and the pEC50 was 6.68.

On to `COCc1cc(=O)n2nc(N3CCc4ncc(-c5cccnc5)cc4C3)c(C)cc2n1` [Compound 1-365, 2-(methoxymethyl)-8-methyl-7-(3-(pyridin-3-yl)-7,8-dihydro-1,6-naphthyridin-6(5H)-yl)-4H-pyrimido[1,2-b] pyridazin-4-one], for which the Emax at 30 µM amounted to 69% and the pEC50 is 6.49.

On to `Cc1cc(=O)n2nc(N3CCc4ncc(-c5ccccc5C)cc4C3)c(C)c(C)c2n1` [Compound 1-137, 2,8,9-trimethyl-7-(3-(o-tolyl)-7,8-dihydro-1,6-naphthyridin-6(5H)-yl)-4H-pyrimido[1,2-b]pyridazin-4-one], for which the Emax at 30 µM is 109% and the pEC50 was 5.76.

Turning to `Cc1cc(=O)n2nc(N3CCc4ncc(N5CC6CC5CO6)cc4C3)c(C)c(C)c2n1` (centres unmarked) [Compound 2-37, 7-(3-(2-oxa-5-azabicyclo[2.2.1]heptan-5-yl)-7,8-dihydro-1,6-naphthyridin-6(5H)-yl)-2,8,9-trimethyl-4H-pyrimido[1,2-b]pyridazin-4-one], the Emax at 30 µM came out at 81% and the pEC50 is 5.87.

Consider `Cc1ncc(CNc2cnc3c(c2)CN(c2nn4c(=O)ccnc4cc2C)CC3)o1` [Compound 2-129, 8-methyl-7-(3-(((2-methyloxazol-5-yl)methyl)amino)-7,8-dihydro-1,6-naphthyridin-6(5H)-yl)-4H-pyrimido[1,2-b]pyridazin-4-one], for which the Emax at 30 µM was found to be 105% and the pEC50 was 6.16.

Take `Cc1cc2n(n1)CCCN2c1cnc2c(c1)CN(c1nn3c(=O)cc(C(F)F)nc3cc1C)CC2` [Compound 2-28, 2-(difluoromethyl)-8-methyl-7-(3-(2-methyl-6,7-dihydropyrazolo[1,5-a]pyrimidin-4(5H)-yl)-7,8-dihydro-1,6-naphthyridin-6(5H)-yl)-4H-pyrimido[1,2-b]pyridazin-4-one]: the Emax at 30 µM turned out to be 85% and the pEC50 was 7.72.

For the compound `COCc1cc(=O)n2nc(N3CCc4ncc(-c5ccc(F)c(F)c5)cc4C3)c(C)cc2n1` [Compound 1-330, 7-(3-(3,4-difluorophenyl)-7,8-dihydro-1,6-naphthyridin-6(5H)-yl)-2-(methoxymethyl)-8-methyl-4H-pyrimido[1,2-b] pyridazin-4-one], the Emax at 30 µM came to 68% and the pEC50 was 6.32.

`Cc1c(N2CCc3ncc(C(F)(F)F)cc3C2)nn2c(=O)ccnc2c1C1CC1` [Compound 1-113, 9-cyclopropyl-8-methyl-7-(3-(trifluoromethyl)-7,8-dihydro-1,6-naphthyridin-6(5H)-yl)-4H-pyrimido[1,2-b]pyridazin-4-one]: the Emax at 30 µM turned out to be 73% and the pEC50 is 6.58.

Turning to `Cc1cc(=O)n2nc(N3CCc4ncc(-c5ccc(C)o5)cc4C3)c(C)c(C)c2n1` [Compound 1-305, 2,8,9-trimethyl-7-(3-(5-methylfuran-2-yl)-7,8-dihydro-1,6-naphthyridin-6(5H)-yl)-4H-pyrimido[1,2-b] pyridazin-4-one], the Emax at 30 µM came to 88% and the pEC50 is 6.50.

In the case of `Cc1cc2ncc(Cl)c(=O)n2nc1N1CCc2ncc(C3CC3)cc2C1` [Compound 1-9, 3-chloro-7-(3-cyclopropyl-7,8-dihydro-1,6-naphthyridin-6(5H)-yl)-8-methyl-4H-pyrimido[1,2-b]pyridazin-4-one], the Emax at 30 µM was found to be 75% and the pEC50 was 7.60.

As for `Cc1cc(C(F)F)ncc1-c1cnc2c(c1)CN(c1nn3c(=O)ccnc3cc1C)CC2` [Compound 1-375, 7-(3-(6-(difluoromethyl)-4-methylpyridin-3-yl)-7,8-dihydro-1,6-naphthyridin-6(5H)-yl)-8-methyl-4H-pyrimido [1,2-b]pyridazin-4-one], the Emax at 30 µM was determined as 75% and the pEC50 is 6.56.

For `Cc1cccnc1-c1cnc2c(c1)CN(c1nn3c(=O)ccnc3cc1C)CC2` [Compound 1-348, 8-methyl-7-(3-(3-methylpyridin-2-yl)-7,8-dihydro-1,6-naphthyridin-6(5H)-yl)-4H-pyrimido[1,2-b]pyridazin-4-one], the Emax at 30 µM amounted to 68% and the pEC50 was 5.59.

Take `Cc1c(N2CCc3ncc(-c4cccc(F)c4)cc3C2)nn2c(=O)cc(C(F)F)nc2c1C` [Compound 1-306, 2-(difluoromethyl)-7-(3-(3-fluorophenyl)-7,8-dihydro-1,6-naphthyridin-6(5H)-yl)-8,9-dimethyl-4H-pyrimido[1,2-b]pyridazin-4-one]: the Emax at 30 µM was 89% and the pEC50 is 6.35.

For `COc1ccc(C2CN(c3cnc4c(c3)CN(c3nn5c(=O)ccnc5cc3C)CC4)CCO2)cc1` (centres unmarked) [Compound 2-95, 7-(3-(2-(4-methoxyphenyl)morpholino)-7,8-dihydro-1,6-naphthyridin-6(5H)-yl)-8-methyl-4H-pyrimido[1,2-b]pyridazin-4-one], the Emax at 30 µM is 64% and the pEC50 was 6.09.

For `Cc1cc2nccc(=O)n2nc1N1CCc2ncc(Nc3cccc4c3OCCO4)cc2C1` [Compound 2-72, 7-(3-((2,3-dihydrobenzo[b][1,4]dioxin-5-yl)amino)-7,8-dihydro-1,6-naphthyridin-6(5H)-yl)-8-methyl-4H-pyrimido[1,2-b]pyridazin-4-one], the Emax at 30 µM amounted to 69% and the pEC50 was 6.26.
